Laboratory results from ChEMBL document CHEMBL6096738, “Optimization of Single Relaxin B-Chain Peptide Leads to the Identification of R2R01, a Potent, Long-Acting RXFP1 Agonist for Cardiovascular and Renal Diseases” (J Med Chem, 2025).
Starred links: 1 amine or outer side, 2 acyl side, 3 side chain; linkers in the order of their positions; H or OH if unused. Non-standard residues stand in square brackets, D forms with d. Residues, ends and D or L forms follow the SMILES beside them. Groups on a side chain read outwards from the residue. *: point of attachment. X3 = CCCCCCCCCCCCCCCCCC(=O)N[C@@H](CCC(=O)N[C@@H](CCC(=O)N[C@@H](CCC(=O)NCCCOCCOCCOCCCNC(=O)CCC(=O)NCCCOCCOCCOCCCNC(=O)CCC(=O)NCCCOCCOCCOCCCN*)C(=O)O)C(=O)O)C(=O)O; Suc = O=C(CCC(=O)[*:2])[*:1]; Aib = CC(C)(N)C(=O)O

Columns and labels:
[1] = Induction of mast cell degranulation in human LAD2 cells assessed as beta-hexosaminidase release by measuring 4-methylumbelliferyl N-acetyl-beta-D-glucosaminide hydrolysis incubated for 30 mins by plate reader analysis; type: toxicity, cell-based; conditions: probe 4-methylumbelliferyl N-acetyl-beta-D-glucosaminide
[2] = Induction of mast cell degranulation in human LAD2 cells assessed as beta-hexosaminidase release by measuring maximal efficacy of 4-methylumbelliferyl N-acetyl-beta-D-glucosaminide hydrolysis at 10 uM incubated for 30 mins by plate reader analysis relative to control; type: toxicity, cell-based; conditions: probe 4-methylumbelliferyl N-acetyl-beta-D-glucosaminide
Relaxin receptor 1 [3] = target: T1, Relaxin receptor 1 (Homo sapiens, UniProt Q9HBX9); test: Agonist activity at human RXFP1 expressed in human OVCAR-5 cells assessed as intracellular cAMP accumulation incubated for 30 mins by HTRF assay; type: functional, cell-based
T1 sequence (Q9HBX9 whole entry): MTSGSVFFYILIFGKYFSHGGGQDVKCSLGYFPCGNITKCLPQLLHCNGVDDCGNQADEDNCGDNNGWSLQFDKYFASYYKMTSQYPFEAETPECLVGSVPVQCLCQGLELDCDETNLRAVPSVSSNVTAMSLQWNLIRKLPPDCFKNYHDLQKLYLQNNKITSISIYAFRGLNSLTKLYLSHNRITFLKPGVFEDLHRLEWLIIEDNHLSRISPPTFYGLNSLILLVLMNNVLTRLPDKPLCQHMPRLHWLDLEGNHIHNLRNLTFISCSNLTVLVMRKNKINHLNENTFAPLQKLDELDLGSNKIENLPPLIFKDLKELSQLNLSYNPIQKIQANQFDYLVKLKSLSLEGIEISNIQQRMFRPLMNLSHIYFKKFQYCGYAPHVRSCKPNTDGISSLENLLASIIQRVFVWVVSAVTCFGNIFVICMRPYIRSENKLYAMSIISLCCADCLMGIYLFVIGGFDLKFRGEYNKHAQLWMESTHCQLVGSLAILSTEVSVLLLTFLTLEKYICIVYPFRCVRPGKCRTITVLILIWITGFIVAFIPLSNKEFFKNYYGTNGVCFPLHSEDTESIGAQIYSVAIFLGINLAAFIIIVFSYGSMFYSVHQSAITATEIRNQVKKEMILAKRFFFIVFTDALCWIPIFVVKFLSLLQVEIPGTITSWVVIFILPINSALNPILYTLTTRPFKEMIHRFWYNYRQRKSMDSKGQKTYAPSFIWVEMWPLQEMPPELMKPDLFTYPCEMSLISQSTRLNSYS

[4] = target: T2, Relaxin receptor 1 (Homo sapiens) (UniProt Q9HBX9); test: Agonist activity at human RXFP1 expressed in human OVCAR-5 cells assessed as intracellular cAMP accumulation by measuring maximal efficacy incubated for 30 mins by HTRF assay relative to control; type: functional, cell-based; conditions: filed as agonist
T2 sequence (whole entry): T1 sequence (Q9HBX9 whole entry)

Relaxin receptor 1 [5] = target: T1, Relaxin receptor 1; test: Agonist activity at human RXFP1 expressed in 2%HSA treated human OVCAR-5 cells assessed as intracellular cAMP accumulation incubated for 30 mins with 2% HSA pretreated compound by HTRF assay; type: functional, cell-based
[6] = target: T2, Relaxin receptor 1 (Homo sapiens); test: Agonist activity at human RXFP1 expressed in 2%HSA treated human OVCAR-5 cells assessed as intracellular cAMP accumulation by measuring maximal efficacy incubated for 30 mins with 2% HSA pretreated compound by HTRF assay relative to control; type: functional, cell-based; conditions: filed as agonist
[7] = Half-life in male Sprague-Dawley rat at 1 mg/kg, iv measured after 198 hrs by LC-HRMS analysis; type: ADME, organism-based; conditions: in vivo

| Structure (SMILES) | EC50 at 30 min [1] [µM] | Emax at 0.5 h, 10 µM [2] [%] | EC50 (Relaxin receptor 1 [3]) [µM] | Emax [4] [%] | EC50 (Relaxin receptor 1 [5]) [µM] | Emax [6] [%] | half-life [7] [h] |
| --- | --- | --- | --- | --- | --- | --- | --- |
| CC[C@H](C)[C@H](NC(=O)[C@H](Cc1ccccc1)NC(=O)[C@H](CCC(=O)O)NC(=O)[C@H](CCCCN)NC(=O)[C@H](C)NC(=O)[C@H](C)NC(=O)[C@H](CCC(N)=O)NC(=O)CNC(=O)[C@H](CCC(=O)O)NC(=O)[C@H](CC(C)C)NC(=O)[C@H](Cc1ccc(O)cc1)NC(=O)[C@H](CO)NC(=O)[C@H](CO)NC(=O)[C@@H](NC(=O)[C@H](CC(=O)O)NC(=O)[C@H](CO)NC(=O)[C@@H](NC(=O)[C@H](Cc1ccccc1)NC(=O)[C@@H](NC(=O)CNC(=O)[C@H](CCC(=O)O)NC(=O)[C@H](C)NC(=O)[C@@H](N)Cc1c[nH]cn1)[C@@H](C)O)[C@@H](C)O)C(C)C)C(=O)N[C@@H](C)C(=O)N[C@@H](Cc1c[nH]c2ccccc12)C(=O)N[C@@H](CC(C)C)C(=O)N[C@H](C(=O)N[C@@H](CCCCN)C(=O)NCC(=O)N[C@@H](CCCNC(=N)N)C(N)=O)C(C)C | […] | 2.5 | – | – | – | – | – |
| CCCCCCCCCCCCCCCC(=O)N[C@@H](CCC(=O)N[C@@H](CCC(=O)N[C@@H](CCC(=O)NC(=O)CCOCCOCCOCCOCCOCCOCCOCCOCCOCCOCCOCCOCCNCCCC[C@H](NC(=O)[C@H](C)NC(=O)[C@H](CCCNC(=N)N)NC(=O)[C@@H](NC(=O)[C@H](CCCCN)NC(=O)[C@H](CCC(=O)O)NC(=O)[C@H](CCCNC(=N)N)NC(=O)CNC(=O)[C@H](CCC(=O)O)NC(=O)[C@H](CC(C)C)NC(C)=O)C(C)C)C(=O)N[C@H](C(=O)NC(C)(C)C(=O)NC(C)(C)C(=O)N[C@@H](CCC(=O)O)C(=O)NCC(=O)N[C@@H](CCCC)C(=O)N[C@@H](CO)C(=O)N[C@H](C(=O)N[C@@H](Cc1c[nH]c2ccccc12)C(=O)N[C@@H](CO)C(=O)NC(C)(C)C(=O)N[C@@H](CCCNC(=N)N)C(=O)N[C@@H](CCCCN)C(=O)N[C@@H](CCCCNC(C)=O)C(N)=O)[C@@H](C)O)[C@@H](C)CC)C(=O)O)C(=O)O)C(=O)O | 2.42 | 59.7 | 0.0062 | 78 | 0.132 | 73 | – |
| CCCCCCCCCCCCCCCCCC(=O)N[C@@H](CCC(=O)N[C@@H](CCC(=O)N[C@@H](CCC(=O)NCCCOCCOCCOCCCNC(=O)CCC(=O)NCCCOCCOCCOCCCNC(=O)CCC(=O)NCCCOCCOCCOCCCNC(=O)CCC(=O)NCCCC[C@H](NC(=O)CNC(=O)[C@H](CCC(=O)O)NC(=O)C(C)(C)NC(=O)C(C)(C)NC(=O)[C@@H](NC(=O)[C@H](CCCCNC(C)=O)NC(=O)[C@H](C)NC(=O)[C@H](CCCNC(=N)N)NC(=O)[C@@H](NC(=O)[C@H](CCCCN)NC(=O)[C@H](CCC(=O)O)NC(=O)[C@H](CCCNC(=N)N)NC(=O)CNC(=O)[C@H](CCC(=O)O)NC(=O)[C@H](CC(C)C)NC(C)=O)C(C)C)[C@@H](C)CC)C(=O)N[C@@H](CO)C(=O)N[C@H](C(=O)N[C@@H](Cc1c[nH]c2ccccc12)C(=O)N[C@@H](CO)C(=O)NC(C)(C)C(=O)N[C@@H](CCCNC(=N)N)C(=O)N[C@@H](CCCCN)C(=O)N[C@@H](CCCCNC(C)=O)C(N)=O)[C@@H](C)O)C(=O)O)C(=O)O)C(=O)O (Ac-LEGREKVRAK(Ac)I[Aib][Aib]EGK([Suc-X3])STWS[Aib]RKK(Ac)-NH2) | 6.43 | 70 | 0.0002 | 96 | 0.0108 | 97 | 5.13 |
